Values belong to the compound of their own block, whether it stands above or below them.
How the values were obtained:
[1] = biological target: Protein cereblon/Tyrosine-protein kinase ABL1 (Homo sapiens) (UniProt P00519+Q96SW2); test: Proteolysis targeting chimera activity in human K562 cells assessed as induction of cereblon-mediated delivery of ABL for protein degradation by proteasome at 1 uM after 24 hrs by immuno blot analysis relative to control; assay type: cell-based
[2] = biological target: Protein cereblon/Tyrosine-protein kinase ABL1/Breakpoint cluster region protein (Homo sapiens) (UniProt P00519+P11274+Q96SW2); test: Proteolysis targeting chimera activity in human K562 cells assessed as induction of cereblon-mediated delivery of BCR-ABL for protein degradation by proteasome at 1 uM after 24 hrs by immuno blot analysis relative to control; assay type: cell-based
Protein cereblon/Tyrosine-protein kinase ABL1/Breakpoint cluster region protein (Homo sapiens), sequence (P00519 whole entry, looked up): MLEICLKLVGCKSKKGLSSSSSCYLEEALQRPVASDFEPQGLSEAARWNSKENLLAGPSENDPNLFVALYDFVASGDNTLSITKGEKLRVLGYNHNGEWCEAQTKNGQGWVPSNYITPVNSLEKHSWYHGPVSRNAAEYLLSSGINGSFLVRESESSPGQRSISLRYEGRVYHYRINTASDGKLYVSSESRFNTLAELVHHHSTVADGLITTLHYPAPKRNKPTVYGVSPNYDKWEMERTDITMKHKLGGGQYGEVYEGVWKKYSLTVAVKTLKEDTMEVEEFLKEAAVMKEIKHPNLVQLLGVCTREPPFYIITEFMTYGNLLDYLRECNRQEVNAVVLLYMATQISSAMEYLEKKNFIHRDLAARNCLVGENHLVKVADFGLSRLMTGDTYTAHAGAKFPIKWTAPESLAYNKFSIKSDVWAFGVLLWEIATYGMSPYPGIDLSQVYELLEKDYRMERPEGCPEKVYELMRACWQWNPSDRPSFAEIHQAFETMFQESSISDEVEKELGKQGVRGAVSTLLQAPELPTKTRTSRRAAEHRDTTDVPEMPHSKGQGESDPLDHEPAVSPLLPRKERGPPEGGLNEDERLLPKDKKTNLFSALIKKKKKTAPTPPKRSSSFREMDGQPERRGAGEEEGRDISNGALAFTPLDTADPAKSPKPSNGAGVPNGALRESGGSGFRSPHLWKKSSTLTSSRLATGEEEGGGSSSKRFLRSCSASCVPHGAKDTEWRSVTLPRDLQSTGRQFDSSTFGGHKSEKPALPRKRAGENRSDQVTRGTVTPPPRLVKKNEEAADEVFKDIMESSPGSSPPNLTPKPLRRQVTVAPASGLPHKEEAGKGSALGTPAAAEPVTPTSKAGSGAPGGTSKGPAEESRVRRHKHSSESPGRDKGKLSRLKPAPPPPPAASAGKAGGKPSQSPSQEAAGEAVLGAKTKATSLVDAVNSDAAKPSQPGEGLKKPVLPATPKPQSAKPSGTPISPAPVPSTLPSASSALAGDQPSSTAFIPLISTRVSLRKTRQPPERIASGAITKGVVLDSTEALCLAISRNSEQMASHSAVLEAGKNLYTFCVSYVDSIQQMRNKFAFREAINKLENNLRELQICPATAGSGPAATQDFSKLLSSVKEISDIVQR
Protein cereblon/Tyrosine-protein kinase ABL1/Breakpoint cluster region protein (Homo sapiens), sequence (P11274 whole entry, looked up): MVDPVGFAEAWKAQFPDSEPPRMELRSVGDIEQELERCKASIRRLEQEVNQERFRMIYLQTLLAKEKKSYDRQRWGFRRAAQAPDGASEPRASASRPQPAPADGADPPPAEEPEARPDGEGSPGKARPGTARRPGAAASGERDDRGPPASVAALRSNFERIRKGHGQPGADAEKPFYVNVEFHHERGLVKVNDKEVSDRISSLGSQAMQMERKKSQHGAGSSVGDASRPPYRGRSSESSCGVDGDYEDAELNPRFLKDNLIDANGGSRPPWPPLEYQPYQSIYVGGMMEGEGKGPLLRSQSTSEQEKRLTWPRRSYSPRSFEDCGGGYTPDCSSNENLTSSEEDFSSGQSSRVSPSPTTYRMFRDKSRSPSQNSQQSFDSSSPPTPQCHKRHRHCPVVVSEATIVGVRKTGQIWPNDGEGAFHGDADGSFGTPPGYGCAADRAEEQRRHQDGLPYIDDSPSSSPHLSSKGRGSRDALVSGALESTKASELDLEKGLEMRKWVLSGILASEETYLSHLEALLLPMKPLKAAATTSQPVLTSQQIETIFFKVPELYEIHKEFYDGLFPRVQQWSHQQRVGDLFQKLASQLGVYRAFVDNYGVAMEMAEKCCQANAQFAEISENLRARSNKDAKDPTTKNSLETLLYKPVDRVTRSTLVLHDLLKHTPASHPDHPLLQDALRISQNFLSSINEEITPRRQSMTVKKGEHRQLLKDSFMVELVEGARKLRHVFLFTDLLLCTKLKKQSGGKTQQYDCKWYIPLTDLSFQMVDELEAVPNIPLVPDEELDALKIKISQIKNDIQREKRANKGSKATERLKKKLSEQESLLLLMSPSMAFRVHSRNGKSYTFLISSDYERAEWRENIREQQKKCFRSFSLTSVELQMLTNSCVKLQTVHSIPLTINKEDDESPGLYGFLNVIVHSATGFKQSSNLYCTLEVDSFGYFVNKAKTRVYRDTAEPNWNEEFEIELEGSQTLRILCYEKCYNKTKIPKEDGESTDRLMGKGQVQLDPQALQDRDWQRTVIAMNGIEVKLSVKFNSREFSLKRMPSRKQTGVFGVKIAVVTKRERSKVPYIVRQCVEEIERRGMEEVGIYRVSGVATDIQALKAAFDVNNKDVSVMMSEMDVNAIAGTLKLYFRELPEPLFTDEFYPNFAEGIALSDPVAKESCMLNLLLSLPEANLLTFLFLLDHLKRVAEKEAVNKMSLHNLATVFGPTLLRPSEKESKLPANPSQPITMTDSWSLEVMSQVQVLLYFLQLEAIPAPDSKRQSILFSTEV
Protein cereblon/Tyrosine-protein kinase ABL1/Breakpoint cluster region protein (Homo sapiens), sequence (Q96SW2 whole entry, looked up): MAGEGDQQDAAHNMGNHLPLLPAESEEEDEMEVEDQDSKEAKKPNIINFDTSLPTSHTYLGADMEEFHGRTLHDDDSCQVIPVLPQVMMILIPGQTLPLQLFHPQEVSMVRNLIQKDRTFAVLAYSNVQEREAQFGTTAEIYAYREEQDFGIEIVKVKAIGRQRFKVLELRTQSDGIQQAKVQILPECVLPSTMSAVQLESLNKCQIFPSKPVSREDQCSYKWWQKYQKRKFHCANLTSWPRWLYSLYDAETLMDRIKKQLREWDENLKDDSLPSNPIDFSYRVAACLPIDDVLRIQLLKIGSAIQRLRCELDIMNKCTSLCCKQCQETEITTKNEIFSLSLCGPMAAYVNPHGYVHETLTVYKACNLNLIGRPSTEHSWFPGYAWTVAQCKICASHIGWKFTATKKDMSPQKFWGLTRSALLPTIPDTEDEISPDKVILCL

[3] = biological target: T1, Protein cereblon/Bromodomain-containing protein 4 (Homo sapiens, UniProt O60885+Q96SW2); test: Proteolysis targeting chimera activity in human MV4-11 cells assessed as induction of cereblon-mediated delivery of BRD4 for protein degradation by proteasome at 100 nM incubated for 18 hrs by immuno blot analysis; assay type: cell-based
T1 sequence (Q96SW2 whole entry, looked up, other chains not shown): as the sequence (Q96SW2 whole entry, looked up) above

Heart = test: In vivo induction of ERRalpha degradation in CD-1 mouse heart at 100 mg/kg, ip every 8 hrs measured 5 hrs post last dose by LC/MS analysis relative to control; assay type: functional
MDA-MB-231 = test: In vivo induction of ERRalpha degradation in human MDA-MB-231 cells xenografted in […] mouse at 100 mg/kg, ip every 8 hrs measured 5 hrs post last dose by LC/MS analysis relative to control; assay type: functional
Kidney = test: In vivo induction of ERRalpha degradation in CD-1 mouse kidney at 100 mg/kg, ip every 8 hrs measured 5 hrs post last dose by LC/MS analysis relative to control; assay type: functional
[4] = biological target: von Hippel-Lindau disease tumor suppressor/Steroid hormone receptor ERR1 (Homo sapiens, UniProt P11474+P40337); test: Proteolysis targeting chimera activity in human MCF7 cells assessed as induction of VHL-mediated delivery of ERRalpha for protein degradation by proteasome by measuring drug level causing 50% substrate depletion incubated for 24 hrs by Western blot method; assay type: cell-based
[5] = biological target: T1, Protein cereblon/Bromodomain-containing protein 4; test: Proteolysis targeting chimera activity in human BL cells assessed as induction of cereblon-mediated delivery of BRD4 for protein degradation by proteasome by immuno blot analysis; assay type: cell-based
VCaP = test: Antitumor activity against human VCaP cells xenografted in SCID mouse assessed as tumor growth inhibition at 10 mg/kg, sc administered every 3 days for 16 days relative to control; assay type: functional; details: read-out: TGI
[6] = biological target: von Hippel-Lindau disease tumor suppressor/Bromodomain-containing protein 2 (Homo sapiens, UniProt P25440+P40337); test: Proteolysis targeting chimera activity in human 22Rv1 cells assessed as induction of VHL-mediated delivery of BRD2 for protein degradation by proteasome by measuring drug level causing 50% substrate depletion incubated for 16 hrs by Western blot method; assay type: cell-based
[7] = biological target: Protein cereblon/Peptidyl-prolyl cis-trans isomerase FKBP1A (Homo sapiens, UniProt P62942+Q96SW2); test: Proteolysis targeting chimera activity in human MV4-11 cells assessed as induction of cereblon-mediated delivery of FKBP12 for protein degradation by proteasome incubated for 18 hrs by immuno blot analysis; assay type: cell-based

Protein cereblon/Tyrosine-protein kinase ABL1 (Homo sapiens), sequence (P00519 whole entry, looked up): as the sequence (P00519 whole entry, looked up) above
Protein cereblon/Tyrosine-protein kinase ABL1 (Homo sapiens), sequence (Q96SW2 whole entry, looked up): as the sequence (Q96SW2 whole entry, looked up) above

Structure (SMILES): COc1cc(Nc2c(C#N)cnc3cc(OCCCN4CCN(CCCCCCOCCOCCOCCCCCc5cccc6c5C(=O)N(C5CCC(=O)NC5=O)C6=O)CC4)c(OC)cc23)c(Cl)cc1Cl (stereo not drawn)
- Imax [1]: 90%
- Imax [2]: 80%

Structure (SMILES): COc1cc(/C=C2\SC(=O)N(CCOCCC(=O)N[C@H](C(=O)N3C[C@H](O)C[C@H]3C(=O)NCc3ccc(-c4scnc4C)cc3)C(C)(C)C)C2=O)ccc1Oc1ccc(C#N)cc1C(F)(F)F
- Activity (Heart): 40%
- Activity (MDA-MB-231): 40%
- Activity (Kidney): 40%
- IC50 [4]: 100 nM

Structure (SMILES): CCC(C)(C)C(=O)C(=O)N1CCCC[C@H]1C(=O)O[C@H](CCc1ccc(OC)c(OC)c1)c1cccc(NC(=O)CCC(=O)NCCNC(=O)COc2cccc3c2C(=O)N(C2CCC(=O)NC2=O)C3=O)c1 (stereo partly drawn)
- IC50 [7]: 10 nM

Second part, led by results:

- Imax [3]: > 85%
Structure (SMILES): Cc1sc2c(c1C)C(c1ccc(Cl)cc1)=C[C@@H](CC(=O)NCCCCNC(=O)COc1cccc3c1C(=O)N(C1CCC(=O)NC1=O)C3=O)c1nnc(C)n1-2 (stereo partly drawn)

- Imax [1]: > 85%
- Imax [2]: > 60%
Structure (SMILES): Cc1nc(Nc2ncc(C(=O)Nc3c(C)cccc3Cl)s2)cc(N2CCN(CCCCCCOCCOCCOCCCCCc3cccc4c3C(=O)N(C3CCC(=O)NC3=O)C4=O)CC2)n1 (stereo not drawn)

- IC50 [5]: < 1 nM
Structure (SMILES): Cc1sc2c(c1C)C(c1ccc(Cl)cc1)=C[C@@H](CC(=O)Nc1ccc(OCCOCCOCCOCCNc3cccc4c3C(=O)N(C3CCC(=O)NC3=O)C4=O)cc1)c1nnc(C)n1-2 (stereo partly drawn)

- IC50 [6]: < 5 nM
Structure (SMILES): Cc1ncsc1-c1ccc([C@H](C)NC(=O)[C@@H]2C[C@@H](O)CN2C(=O)[C@@H](NC(=O)COCCCOCCNC(=O)C[C@@H]2N=C(c3ccc(Cl)cc3)c3c(sc(C)c3C)-n3c(C)nnc32)C(C)(C)C)cc1
- inhibition in vivo at 10 mg/kg (VCaP): 60%

From ChEMBL document CHEMBL4190166 (Medchemcomm, 2016)
